# Patent US20060240474A1, “Peptides able to switch between two structural states and their use” (UNIVERSITY OF SUSSEX, priority 2002, published 2006)
# Where a SMILES comes first, the peptide text is derived from it. Bridges are numbered along the chain shown (N, C = ends). Where no end group is shown, it is not given here. The star is where a group is joined. Cam = NC(=O)C*
# B1: CSP-2r (reduced and alkylated) (peptide)
# peptide: C(Cam)GGEIRALKYEIARLKQGGGGKKRALEQKIAALEGGC(Cam)
# notes: CSP-1 with a tetraglycine insert; also called design iteration 2, reduced & alkylated; CSP-4a (Maya's nomenclature)
# B2: CSP-2o (intra-molecularly oxidised) (peptide)
# peptide: CGGEIRALKYEIARLKQGGGGKKRALEQKIAALEGGC
# modifications: disulfide 1-37
# notes: also called design iteration 2, oxidised; CSP-4o (Maya's nomenclature)
# Experiments:
# [1] = Circular dichroism spectroscopy (helicity); assay type: physicochemical; conditions: pH 7; comparator named in the value
# Experimental: (§1) Circular dichroism spectroscopy. CD measurements were made using a JASCO J-715 spectropolarimeter fitted with a Peltier temperature controller. Peptide solutions were prepared in 25 mM potassium phosphate buffer at pH 7 and were examined in 1 mm or 1 cm quartz cuvettes (with stirring). Spectra were recorded at 5° C. using 1 nm intervals, a 1 nm bandwidth and 4 sec response time. Thermal unfolding curves were recorded through 1° C. min^−1 ramps using a 2 nm bandwidth, averaging the signal for 16 s every 1° C. intervals. After baseline correction, ellipticities in mdeg were converted to molar ellipticities (deg cm^2 dmol-res-^−1) by normalising for the concentration of peptide bonds.
# [2] = Conformational switching of oxidised CSP-3 to the reduced form, CD time scan at 222 nm; assay type: physicochemical; conditions: 20-fold excess (2 mM)
# Experimental: The molar ellipticity at 222 nm was recorded. To induce the switch of the peptide from its oxidised to its reduced form a reducing agent for the disulphide bond was added. Two reducing agents were used for comparison, DTE and β-mercaptoethanol, in 20-fold excess (2 mM). […] The time taken to initiate the scan after addition of reducing agent was noted. […] A wavelength scan (190-260 nm) was run for each sample once the switch experiment was complete to record the spectrum of the reduced peptide. The data obtained from the time course reaction was analysed using the data analysis program Origin (v. 11) (see FIG. 5) A single exponential curve for a first order reaction has been fitted to the data from a switch experiment, using the data analysis program Origin. The equation for the curve is: y=Ae^−kt+B where A=amplitude of signal • B=[…] • k=rate constant • t=time […]
# [3] = Thermal unfolding followed by CD spectroscopy; assay type: physicochemical; conditions: comparator named in the value
# Experimental: as §1
# [4] = Sedimentation equilibrium analytical ultracentrifugation (monomer-dimer equilibrium); assay type: physicochemical; conditions: monomer-dimer fit, 5° C., pH 7; read-out: KD (95% confidence limits)
# Experimental: Sedimentation equilibrium experiments were conducted at 5° C. in a Beckman-Optima XL-I analytical ultracentrifuge fitted with an An-60 Ti rotor. A […] peptide solution at […] in 25 mM K phosphate buffer pH 7 containing 0.1 M KCl was equilibrated for 48 h at speeds of 40 000, 47 500/50 000 and 55 000/60 000 rpm. […] The molecular weights (Table 2) and partial specific volumes (range 0.7417 to 0.7461) of the peptides were calculated from their amino-acid sequences, and the viscosity of the buffer at 5° C. was taken to be […].
# [5] = target: the molecule itself; test: sedimentation equilibrium AUC, poor monomer-dimer fit, 5 C (homodimerisation)
# Experimental: (§2) Sedimentation equilibrium experiments were conducted at 5° C. in a Beckman-Optima XL-I analytical ultracentrifuge fitted with an An-60 Ti rotor. A […] peptide solution at […] in 25 mM K phosphate buffer pH 7 containing 0.1 M KCl was equilibrated for 48 h at speeds of 40 000, 47 500/50 000 and 55 000/60 000 rpm. Data were fitted simultaneously assuming either a single ideal species or a monomer-dimer equilibrium and fixed monomer molecular weight, using routines in the Beckman-Optima XL-A/XLI-I data analysis software (v4.0). The molecular weights (Table 2) and partial specific volumes (range 0.7417 to 0.7461) of the peptides were calculated from their amino-acid sequences, and the viscosity of the buffer at 5° C. was taken to be […].
# However, the reduced form of the peptide, CSP-2r, was only partially folded as judged from CD spectra (consistent with only ˜20% helix) (see FIG. 3A). […] (see FIG. 3B). […] The data fitted best assuming a single ideal species, and returned a molecular weight close to that expected for monomer (see Table 2). Fits to monomer-dimer were poor and gave weak dissociation constants in the 10-100 mM range.
# [6] = target: the molecule itself; test: sedimentation equilibrium (AUC), self-association
# Experimental: as §2
molecule,measurement,setting,value
CC[C@H](C)[C@@H]1NC(=O)[C@H](CCCCN)NC(=O)[C@H](CCC(N)=O)NC(=O)[C@H](CCC(=O)O)NC(=O)[C@H](CC(C)C)NC(=O)[C@H](C)NC(=O)[C@H](CCCNC(=N)N)NC(=O)[C@H]([C@@H](C)CC)NC(=O)[C@H](CCCCN)NC(=O)[C@H](C)NC(=O)[C@H](CCC(N)=O)NC(=O)[C@H](CCCCN)NC(=O)[C@H](C)NC(=O)[C@H](CCC(N)=O)NC(=O)[C@H](CCCCN)NC(=O)[C@H](CC(C)C)NC(=O)[C@H](CCCNC(=N)N)NC(=O)[C@H](C)NC(=O)[C@H]([C@@H](C)CC)NC(=O)[C@H](CCC(=O)O)NC(=O)[C@H](Cc2ccc(O)cc2)NC(=O)[C@H](CCCCN)NC(=O)[C@H](CC(C)C)NC(=O)[C@H](C)NC(=O)[C@H](CCCNC(=N)N)NC(=O)[C@H]([C@@H](C)CC)NC(=O)[C@H](CCC(=O)O)NC(=O)CNC(=O)CNC(=O)[C@@H](N)CSSC[C@@H](C(=O)O)NC(=O)CNC(=O)CNC(=O)[C@H](CCC(=O)O)NC(=O)[C@H](CC(C)C)NC(=O)[C@H](C)NC(=O)[C@H](C)NC1=O [CSP-3o] (H-CGGEIRALKYEIARLKQAKQAKIRALEQKIAALEGGC-OH; disulfide 1-37; N-terminus and C-terminus assumed),helicity compared with other designs (CD signal at 222 nm),[1],marginally improved helicity and thermal stability over CSP-2o
same,time taken for reduction to complete,[2]; with DTE,75 min
same,time taken for reduction to complete,[2]; with βME,180 min
same,thermal stability in words,[3],marginally improved helicity and thermal stability over CSP-2o
CGGEIRALKYEIARLKQ----KKRALEQKIAALEGGC [CSP-1r],Kd,[4],0.033 mM
B1,Kd,[5],10 to 100 mM
B2,binding result,[6],no binding
